Columns and labels:
Type in all cases: toxicity, cell-based
HEK-293T = assay: Incucyte cell viability with HEK293T; conditions: human, 10 µM, compound concentration 10 uM
Fibroblast = assay: Incucyte cell viability with human fibroblast; conditions: 10 µM, compound concentration 10 uM
U2OS = assay: Incucyte cell viability with U2OS; conditions: human, 10 µM, compound concentration 10 uM
Further: unitless GR value; below 1 slowed growth and below 0 cell loss.

Row | SMILES | Growth Rate (HEK-293T; 0 h, replicate number 1) | Growth Rate (HEK-293T; 0 h, replicate number 2) | Growth Rate (HEK-293T; 12 h, replicate number 2) | Growth Rate (HEK-293T; 24 h, replicate number 2) | Growth Rate (Fibroblast; 0 h, replicate number 1) | Growth Rate (Fibroblast; 0 h, replicate number 2) | Growth Rate (Fibroblast; 6 h, replicate number 1) | Growth Rate (Fibroblast; 6 h, replicate number 2) | Growth Rate (Fibroblast; 12 h, replicate number 1) | Growth Rate (Fibroblast; 12 h, replicate number 2) | Growth Rate (U2OS; 18 h, replicate number 1) | Growth Rate (U2OS; 18 h, replicate number 2) | Growth Rate (U2OS; 24 h, replicate number 1) | Growth Rate (U2OS; 24 h, replicate number 2) | Growth Rate (HEK-293T; 6 h, replicate number 1) | Growth Rate (U2OS; 6 h, replicate number 2) | Growth Rate (U2OS; 12 h, replicate number 1) | Growth Rate (U2OS; 12 h, replicate number 2) | Growth Rate (Fibroblast; 18 h, replicate number 1) | Growth Rate (HEK-293T; 6 h, replicate number 2) | also measured
1 | NC(=O)c1cc(-c2ccnc(NC3CCCCC3)c2)nc(N2CCNCC2)c1 | -0.55 | -0.65 | 0.31 | 0.44 | -0.81 | 0.79 | 0.63 | -0.77 | -1 | 0.39 | 0.84 | 0.9 | 0.61 | 0.72 | – | – | – | – | – | – | Growth Rate (HEK-293T; 12 h, replicate number 1): 0.54; Growth Rate (HEK-293T; 18 h, replicate number 1): 0.8; Growth Rate (HEK-293T; 18 h, replicate number 2): 0.26; Growth Rate (Fibroblast; 18 h, replicate number 2): 0.65; Growth Rate (Fibroblast; 24 h, replicate number 2): 0.36
2 | O=C1NCCc2c(OCCCCN3CCCCC3)cccc21 | 0.6 | 0.67 | – | – | 0.29 | -0.96 | 0.19 | – | -0.5 | 0.64 | 0.79 | 0.88 | 0.79 | 0.83 | 0.81 | 0.34 | 0.56 | 0.86 | – | – | Growth Rate (Fibroblast; 18 h, replicate number 2): 0.79; Growth Rate (Fibroblast; 24 h, replicate number 2): 0.76; Growth Rate (U2OS; 0 h, replicate number 2): -0.98; Growth Rate (U2OS; 6 h, replicate number 1): 0.02
3 | Clc1cccc(-n2nnnc2NCc2ccccc2Oc2ccccn2)c1Cl | 0.73 | 0.49 | – | – | 0.89 | 0.26 | – | -0.47 | – | 0.89 | – | 0.96 | – | – | – | 0.99 | 0.9 | – | 0.74 | – | Growth Rate (Fibroblast; 24 h, replicate number 1): 0; Growth Rate (U2OS; 0 h, replicate number 1): -0.04; Growth Rate (U2OS; 0 h, replicate number 2): 0.95
4 | O=C1NCCSc2c1sc1ccc(O)cc21 | 0.04 | -0.36 | -0.26 | 0.12 | – | – | -0.69 | – | -1 | – | 0.33 | 0.31 | 0.37 | 0.18 | -0.48 | – | 0.56 | 0.36 | – | -0.51 | Growth Rate (HEK-293T; 12 h, replicate number 1): -0.4; Growth Rate (HEK-293T; 18 h, replicate number 1): -0.14; Growth Rate (HEK-293T; 18 h, replicate number 2): -0.06; Growth Rate (HEK-293T; 24 h, replicate number 1): 0.15; Growth Rate (U2OS; 0 h, replicate number 1): 0; Growth Rate (U2OS; 0 h, replicate number 2): -0.99
5 | NC(=O)c1ccc2[nH]c(-c3ccc(Oc4ccc(Cl)cc4)cc3)nc2c1 | 0.58 | – | 0.93 | 0.98 | 0.02 | -0.68 | -0.26 | – | -1 | – | 0.72 | 0.83 | 0.75 | 0.82 | 0.6 | 0.74 | 0.47 | 0.71 | – | 0.12 | Growth Rate (U2OS; 0 h, replicate number 2): -0.59; Growth Rate (U2OS; 6 h, replicate number 1): -0.28
6 | CC(C)CNc1nc(N2CCN(CC3CCCOC3)CC2)ncc1C(=O)NCc1ccccc1 (stereo unspecified) | 0.68 | – | – | – | -0.99 | – | – | -1 | – | -0.95 | 0.99 | 0.76 | – | 0.79 | 0.81 | 0.72 | 0.83 | 0.63 | -0.97 | 0.95 | Growth Rate (Fibroblast; 18 h, replicate number 2): -0.81; Growth Rate (Fibroblast; 24 h, replicate number 1): -0.8; Growth Rate (Fibroblast; 24 h, replicate number 2): -0.64; Growth Rate (U2OS; 6 h, replicate number 1): 0.3
7 | CCOc1ccccc1C(=O)NCC1(N2CCN(CC)CC2)CCCCC1 | 0.98 | – | 0.31 | 0.46 | -0.95 | -0.98 | – | -0.9 | – | 0.93 | – | 0.86 | – | 0.94 | 0.23 | 0.56 | – | 0.88 | -0.25 | -0.02 | Growth Rate (HEK-293T; 12 h, replicate number 1): -0.11; Growth Rate (HEK-293T; 18 h, replicate number 1): 0.24; Growth Rate (HEK-293T; 18 h, replicate number 2): 0.44; Growth Rate (HEK-293T; 24 h, replicate number 1): 0.44; Growth Rate (Fibroblast; 24 h, replicate number 1): 0.45; Growth Rate (Fibroblast; 24 h, replicate number 2): 0.83; Growth Rate (U2OS; 0 h, replicate number 1): -0.19; Growth Rate (U2OS; 0 h, replicate number 2): -0.99
8 | Cn1c(SCc2ccc(C(C)(C)C)cc2)nc(N)cc1=O | 0.71 | – | 0.05 | 0.23 | 0.97 | -1 | -0.69 | – | – | – | 0.62 | 0.71 | 0.78 | 0.68 | -0.1 | – | 0.86 | 0.66 | – | -0.24 | Growth Rate (HEK-293T; 12 h, replicate number 1): -0.03; Growth Rate (HEK-293T; 18 h, replicate number 1): 0.15; Growth Rate (HEK-293T; 18 h, replicate number 2): 0.19; Growth Rate (HEK-293T; 24 h, replicate number 1): 0.2; Growth Rate (U2OS; 0 h, replicate number 2): -0.65; Growth Rate (U2OS; 6 h, replicate number 1): 0.7
9 | O=C(Nc1ccc(S(=O)(=O)Nc2nccs2)cc1)C(c1ccccc1)c1ccccc1 | 0.71 | – | – | 0.9 | – | -0.85 | – | – | – | 0.85 | – | – | 0.94 | – | 0.94 | – | 0.81 | 0.82 | 0.49 | 0.52 | Growth Rate (HEK-293T; 18 h, replicate number 2): 0.82; Growth Rate (HEK-293T; 24 h, replicate number 1): 0.88
10 | FC(F)(F)Oc1ccc(-c2ccc3nnc(C(F)(F)F)n3c2)cc1 | 0.83 | 0.64 | – | – | – | – | -0.05 | -1 | -1 | 0.76 | 0.74 | 0.92 | 0.91 | 0.96 | 0.53 | 0.81 | 0.82 | 0.64 | 0.42 | – | Growth Rate (HEK-293T; 18 h, replicate number 1): 1; Growth Rate (Fibroblast; 18 h, replicate number 2): 0.75; Growth Rate (Fibroblast; 24 h, replicate number 2): 0.91; Growth Rate (U2OS; 6 h, replicate number 1): 0.08
11 | CCN1CCN(Cc2ccc(Nc3ncc(F)c(-c4cc(F)c5nc(C)n(C(C)C)c5c4)n3)nc2)CC1.CS(=O)(=O)O | -0.17 | 0.21 | 0.38 | 0.76 | 0.5 | – | 0.33 | – | -1 | 0.98 | – | 0.98 | – | 1 | – | – | – | 0.97 | – | 0.64 | Growth Rate (HEK-293T; 12 h, replicate number 1): 0.36; Growth Rate (HEK-293T; 18 h, replicate number 2): 0.6
12 | O=S(=O)(Nc1nnc2cc(OCC34CC5CC(CC(C5)C3)C4)c(C3CC3)cn12)C1CC1 | 0.55 | 0.41 | – | – | – | – | 0.92 | -1 | -1 | 0.16 | – | 0.91 | 0.94 | 0.89 | 0.8 | 0.37 | 0.94 | 0.76 | 0.51 | – | Growth Rate (Fibroblast; 18 h, replicate number 2): 0.43; Growth Rate (Fibroblast; 24 h, replicate number 2): 0.63
13 | NC1=NC(=O)/C(=C2\CCNC(=O)c3[nH]c4ccccc4c32)N1 | 0.81 | 0.25 | – | – | 0.39 | – | – | – | -1 | – | 0.74 | 0.65 | 0.78 | – | – | 0.45 | 0.63 | 0.7 | -0.07 | – | Growth Rate (U2OS; 6 h, replicate number 1): 0.43
14 | C=CC(=O)N1CCC[C@@H](n2nc(C(=O)Nc3ccc(CC(=O)N(C)C)c(C)c3C)c3c(N)ncnc32)C1 | -0.26 | -0.68 | – | – | 0.74 | -1 | -0.17 | – | -1 | – | – | – | – | – | – | – | – | – | – | – | Growth Rate (Fibroblast; 24 h, replicate number 1): 0.16; Growth Rate (U2OS; 0 h, replicate number 2): -0.77
15 | Cl.Clc1ccc(OC[C@H]2CCN2)cn1 | 0.45 | – | 0.94 | – | – | – | -0.66 | -0.05 | – | 0.34 | 0.72 | 0.97 | 0.76 | 0.97 | 0.64 | 0.54 | 0.58 | – | – | 0.93 | Growth Rate (HEK-293T; 18 h, replicate number 1): 0.8; Growth Rate (HEK-293T; 24 h, replicate number 1): 0.83; Growth Rate (Fibroblast; 18 h, replicate number 2): 0.83; Growth Rate (U2OS; 0 h, replicate number 1): -0.28; Growth Rate (U2OS; 6 h, replicate number 1): -0.1
16 | Cl.c1ccc2c(c1)CCC[C@H]2Nc1nc2ccccc2[nH]1 | 0.86 | 0.46 | – | – | 0.94 | 0.4 | – | – | – | 0.56 | 0.9 | 0.95 | 0.98 | – | 0.77 | 0.97 | – | – | 0.44 | – | Growth Rate (Fibroblast; 18 h, replicate number 2): 0.87; Growth Rate (Fibroblast; 24 h, replicate number 1): 0.48; Growth Rate (U2OS; 0 h, replicate number 1): 0.01

Reference: ChEMBL document CHEMBL5303304, “EUbOPEN Chemogenomics Library - IncuCyte” (2023)
